Laboratory results from paper PMC10759609, “A novel PDPN antagonist peptide CY12-RP2 inhibits melanoma growth via Wnt/β-catenin and modulates the immune cells” (Journal of Experimental & Clinical Cancer Research : CR, 2024).
Peptide text beside a SMILES is read from it.

Legend:
A375 cellular spheroid = experiment: 3D spheroid diameter, A375; type: cell-based; conditions: A375 spheroids; 0, 50, 100, 200 μM, 5 days
Procedure: A375 and A875 cells were collected and suspended in Matrigel (Corning) with a density of 1.0 × 10^7 cells per mL. 3D spheroids were fabricate using cell-processing system that have two pumps. One pump was loaded with Matrigel and another with fluorocarbon oil (3 M NOVEC, HFE-7000). The flow rate of Matrigel was 20 μL/min and the fluorocarbon oil rate was 30 μL/min. The 3D spheroids were incubated at 37 °C with 5% CO2 after printing. Culturing medium was DMEM medium supplemented with 10% FBS, and 100 IU of penicillin and […] streptomycin. The medium was changed every 3 days. Afterward, the 3D spheroids were harvested for drug analysis.
Prepared melanoma cells spheroids were plated in 48-well plates. Following incubation for 3 days, the spheroids were exposed to different concentrations (0, 50, 100 and 200 μM) of CY12-RP2, and changes in spheroid diameter were detected after 5 days of treatment. Additionally, melanoma cell spheroids were treated with various concentrations of CY12-RP2 as described previously, and after 72 h, the spheroids were stained for immunofluorescence with caspase 3 primary antibody. The specific experimental procedures refer to the following immunofluorescence analysis. Additionally, we co-cultured peptide-stimulated PBMC with spheroids to determine the tumor-killing ability of activated PBMC.

[1] = tested on: Wnt/β-catenin signaling pathway; experiment: Western blot, EMT and Wnt/β-catenin pathway, melanoma cells; type: cell-based; conditions: melanoma cells treated with peptide
Procedure: Melanoma cells were cultured in a 60 mm dish with a complete medium and various peptide concentrations (0 μM, 5 μM, 25 μM). Protein was extracted after cells were cultured or treated for 48 h using protein lysis buffer, separated using a 10% or 15% Bis–Tris PAGE gel (Epizyme Biomedical Technology, Shanghai, China), and transferred onto a PVDF membrane (Thermo Fisher Scientific) according to standard techniques. The Western blots were imaged using Bio-rad Chemidoc MP and quantified using ImageJ software (NIH).
Fig. S4: The inhibition of cells metastasis and invasion by CY12-RP2 can be […]
(A, B) The inhibition of CY12-RP2 on the migration capacity of melanoma cell lines was reversed by SKL2001 (A). Statistical analysis was performed to determine the migrated distance (B). The power field scale bar, 100 μm. (C, D) Effect of CY12-RP2 on the invasive ability of melanoma cell lines were reversed by SKL2001 (C). […]
(A) TUNEL analysis of apoptosis was conducted on orthotopic xenografts tumor sections using fluorescence staining. […] (B) Fluorescence staining of Ki67 was carried out on orthotopic xenograft tumor sections.
The power field scale bar, 100 μm. (C) Serum His-CY12-RP2 levels of the orthotopic xenografts mice treated by various dosage of CY12-RP2 were measured by His-ELISA kit. […]
kit. (E) Serum ALT, AST, TG, and γ-GT levels of the orthotopic xenografts model were measured by ELISA. […]

[2] = tested on: B16F10-Luc lung metastasis; type: in vivo, BALB/c mice; conditions: 25 and 100 mg/kg i.v. every two days, 15 days
Procedure: For pulmonary metastasis assays, 6- to 8-week-old female BALB/c mice were administered with 5 × 10^5 B16F10-Luc cells via tail vein to establish an experimental pulmonary metastasis model of melanoma. CY12-RP2 was administered to the mice intravenously at high and low doses (25 mg/kg and 100 mg/kg) every two days, and the mice were sacrificed after 15 days of treatment. Pulmonary metastases were evaluated using bioluminescence imaging on the 2nd, 5th, 10th, 15th and 20th day after B16F10-Luc cells injection. Subsequently, the BALB/c mice were sacrificed, and the organs including the heart, liver, spleen, lung, and kidney were collected and imaged for evaluation of micrometastases. The xenografts and organs were kept in a 4% paraformaldehyde solution for subsequent histological assays.

CC(C)C[C@H](NC(=O)[C@H](Cc1ccc(O)cc1)NC(=O)[C@@H](N)[C@@H](C)O)C(=O)N[C@@H](CS)C(=O)N[C@H](C(=O)N[C@@H](C)C(=O)N[C@@H](CS)C(=O)N[C@@H](CC(=O)O)C(=O)N[C@@H](Cc1ccc(O)cc1)C(=O)N[C@H](C(=O)N[C@@H](Cc1c[nH]cn1)C(=O)N[C@@H](Cc1c[nH]cn1)C(=O)O)[C@@H](C)O)[C@@H](C)O [CY12-RP2] (H-TYLCTACDYTHH-OH; N-terminus and C-terminus assumed)
relative spheroid diameter (A375 cellular spheroid): significantly diminished with increasing CY12-RP2 concentration | Wnt/β-catenin pathway [1]: could inhibit the Wnt/β-catenin pathway | pulmonary metastases ([2]; bioluminescence, vs control): significantly fewer pulmonary metastases | size of nodules and frequency of metastases in the lungs ([2]; ex vivo organ bioluminescence): significant reduction | metastatic nodules in the lung ([2]; representative nodule images): significantly reduced
